One compound from BindingDB's records for doi:10.1021/jm010496a (Pfizer, 2002) can be followed below.

The test concerns the target Fructose-1,6-bisphosphatase 1 (Sus scrofa) (UniProt P00636). The experiment in a line: Concentration required for 50% Inhibition against recombinant wild type pig enzyme (F16BP) Fructose-1,6-bisphosphatase.

Sequence of Fructose-1,6-bisphosphatase 1 (Sus scrofa) (P00636 whole entry, looked up): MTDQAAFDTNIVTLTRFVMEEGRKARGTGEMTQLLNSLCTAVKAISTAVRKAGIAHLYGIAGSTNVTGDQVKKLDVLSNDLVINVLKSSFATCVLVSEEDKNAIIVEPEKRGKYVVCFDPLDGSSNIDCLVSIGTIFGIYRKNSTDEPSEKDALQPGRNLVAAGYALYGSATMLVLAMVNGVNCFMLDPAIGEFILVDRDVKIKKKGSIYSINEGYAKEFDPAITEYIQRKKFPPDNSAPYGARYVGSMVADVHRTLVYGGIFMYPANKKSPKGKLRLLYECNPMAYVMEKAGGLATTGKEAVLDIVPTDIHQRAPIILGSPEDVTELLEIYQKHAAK

Consider `CCOc1cc2nc(CN(C)C)nc(Nc3cccc(-c4csc(C(N)=O)n4)c3)c2cc1OCC` [4-[3-(2-Dimethylaminomethyl-6,7-diethoxy-quinazolin-4-ylamino)-phenyl]-thiazole-2-carboxylic acid amide], for which the IC50 worked out at 9.5 µM.
